# Legend:
# Format in all cases: in vivo
# [1] = tested on: barnyardgrass (Echinochloa crus-galli); test: Test A pre-/postemergence plant response
# Excerpt: (§1) Seeds of barnyardgrass (Echinochloa crus-galli), large crabgrass (Digitaria sanguinalis), giant foxtail (Setaria faberii), morningglory (Ipomoea spp.), pigweed (Amaranthus retroflexus), velvetleaf (Abutilon theophrasti), wheat (Triticum aestivum) and corn (Zea mays) were planted into a blend of loam soil and sand and treated preemergence with a directed soil spray using test chemicals formulated in a non-phytotoxic solvent mixture which included a surfactant. At the same time these species were also treated with postemergence applications of test compounds formulated in the same manner.
# (§2) Plants ranged in height from two to ten cm and were in the one- to two-leaf stage for the postemergence treatment. Treated plants and untreated controls were maintained in a greenhouse for approximately ten days, after which time all treated plants were compared to untreated controls and visually evaluated for injury. Plant response ratings, summarized in Table A, are based on a 0 to 100 scale where 0 is no effect and 100 is complete control. A dash (-) response means no test result.
# [2] = tested on: corn (Zea mays); test: Test A pre-/postemergence plant response
# Excerpt: as §1, §2
# [3] = tested on: giant foxtail (Setaria faberii); test: Test A pre-/postemergence plant response
# Excerpt: as §1, §2
# [4] = tested on: large crabgrass (Digitaria sanguinalis); test: Test A pre-/postemergence plant response
# Excerpt: as §1, §2
# [5] = tested on: morningglory (Ipomoea spp.); test: Test A pre-/postemergence plant response
# Excerpt: as §1, §2
# [6] = tested on: pigweed (Amaranthus retroflexus); test: Test A pre-/postemergence plant response
# Excerpt: as §1, §2
# [7] = tested on: velvetleaf (Abutilon theophrasti); test: Test A pre-/postemergence plant response
# Excerpt: as §1, §2
# [8] = tested on: wheat (Triticum aestivum); test: Test A pre-/postemergence plant response
# Excerpt: as §1, §2
# [9] = tested on: barnyardgrass (Echinochloa crus-galli); test: Test B flooded paddy test; settings: for Plant response rating, Flood, Barnyardgrass: 250 g ai/ha, flooded paddy test, visual rating on 0 to 100 scale (0 no effect, 100 complete control) after 13 to 15 days; for Plant response rating, Barnyardgrass: Flood (flooded paddy test), 13 to 15 days; for Barnyardgrass plant response rating: Flood, 31 g ai/ha, scale 0 to 100 (0 no effect, 100 complete control)
# Outline: (§3)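 Each compound is added to standing floodwater (3 cm above soil, maintained) in pots of 2-leaf-stage plants; greenhouse exposure lasts 13–15 d before visual comparison with controls on a 0–100 control scale.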
# [10] = tested on: ducksalad (Heteranthera limosa); test: Test B flooded paddy test; settings: for Plant response rating, Flood, Ducksalad: 250 g ai/ha, flooded paddy test, visual rating on 0 to 100 scale (0 no effect, 100 complete control) after 13 to 15 days; for Plant response rating, Ducksalad: Flood (flooded paddy test), 13 to 15 days; for Ducksalad plant response rating: Flood, 31 g ai/ha, scale 0 to 100 (0 no effect, 100 complete control)
# Outline: as §3
# [11] = tested on: rice (Oryza sativa); test: Test B flooded paddy test; settings: for Plant response rating, Flood, Rice: 250 g ai/ha, flooded paddy test, visual rating on 0 to 100 scale (0 no effect, 100 complete control) after 13 to 15 days; for Plant response rating, Rice: Flood (flooded paddy test), 13 to 15 days; for Rice plant response rating: Flood, 31 g ai/ha, scale 0 to 100 (0 no effect, 100 complete control)
# Outline: as §3
# [12] = tested on: umbrella sedge (Cyperus difformis); test: Test B flooded paddy test; settings: for Plant response rating, Flood, Sedge, Umbrella: 250 g ai/ha, flooded paddy test, visual rating on 0 to 100 scale (0 no effect, 100 complete control) after 13 to 15 days; for Plant response rating, Sedge, Umbrella: Flood (flooded paddy test), 13 to 15 days; for Sedge, Umbrella plant response rating: Flood, 31 g ai/ha, scale 0 to 100 (0 no effect, 100 complete control)
# Outline: as §3
# [13] = Postemergence, 125 g ai/ha, 0 to 100 scale where 0 is no effect and 100 is complete control
# [14] = Postemergence, 500 g ai/ha, 0 to 100 scale, 0 = no effect, 100 = complete control, approx. ten days
# [15] = Preemergence, 125 g ai/ha, 0 to 100 scale, 0 = no effect, 100 = complete control
# [16] = Preemergence, 500 g ai/ha, visual injury, 0 to 100 scale (0 no effect, 100 complete control), approx. ten days
# [17] = Preemergence, 500 g ai/ha, 0 to 100 scale, 0 = no effect, 100 = complete control
# [18] = 62 g ai/ha, scale of 0 to 100 where 0 is no effect and 100 is complete control
# [19] = 125 g ai/ha, scale 0 to 100, 0 is no effect, 100 is complete control
smiles,measurement,setting,value
CCCn1c(C2CC2)ncc(C(=O)C2=C(O)CCCC2=O)c1=O [Compound 153],"Plant response rating, Barnyardgrass",[1]; [13],80
same,"Plant response rating, Barnyardgrass",[1]; [14],90
same,"Plant response rating, Barnyardgrass",[1]; [15],40
same,"Plant response rating, Barnyardgrass",[1]; [16],80
same,"Plant response rating, Corn",[2]; [13],0
same,"Plant response rating, Corn",[2]; [14],20
same,"Plant response rating, Corn",[2]; [15],20
same,"Plant response rating, Corn",[2]; [16],20
same,"Plant response rating, Foxtail, Giant",[3]; [13],70
same,"Plant response rating, Foxtail, Giant",[3]; [14],80
same,"Plant response rating, Foxtail, Giant",[3]; [15],20
same,"Plant response rating, Foxtail, Giant",[3]; [16],70
same,"Plant response rating, Crabgrass, Large",[4]; [13],90
same,"Plant response rating, Crabgrass, Large",[4]; [14],90
same,"Plant response rating, Crabgrass, Large",[4]; [15],80
same,"Plant response rating, Crabgrass, Large",[4]; [16],100
same,"Plant response rating, Morningglory",[5]; [13],50
same,"Plant response rating, Morningglory",[5]; [14],60
same,"Plant response rating, Morningglory",[5]; [15],20
same,"Plant response rating, Morningglory",[5]; [16],70
same,"Plant response rating, Pigweed",[6]; [13],100
same,"Plant response rating, Pigweed",[6]; [14],100
same,"Plant response rating, Pigweed",[6]; [15],100
same,"Plant response rating, Pigweed",[6]; [16],100
same,"Plant response rating, Velvetleaf",[7]; [13],100
same,"Plant response rating, Velvetleaf",[7]; [14],100
same,"Plant response rating, Velvetleaf",[7]; [15],100
same,"Plant response rating, Velvetleaf",[7]; [17],100
same,"Plant response rating, Wheat",[8]; [13],0
same,"Plant response rating, Wheat",[8]; [14],10
same,"Plant response rating, Wheat",[8]; [15],0
same,"Plant response rating, Wheat",[8]; [17],20
same,"Plant response rating, Flood, Barnyardgrass",[9],45
same,"Plant response rating, Barnyardgrass",[9]; [18],0
same,"Plant response rating, Barnyardgrass",[9]; [19],35
same,Barnyardgrass plant response rating,[9],0
same,"Plant response rating, Flood, Ducksalad",[10],100
same,"Plant response rating, Ducksalad",[10]; [18],65
same,"Plant response rating, Ducksalad",[10]; [19],100
same,Ducksalad plant response rating,[10],0
same,"Plant response rating, Flood, Rice",[11],65
same,"Plant response rating, Rice",[11]; [18],35
same,"Plant response rating, Rice",[11]; [19],55
same,Rice plant response rating,[11],35
same,"Plant response rating, Flood, Sedge, Umbrella",[12],95
same,"Plant response rating, Sedge, Umbrella",[12]; [18],0
same,"Plant response rating, Sedge, Umbrella",[12]; [19],80
same,"Sedge, Umbrella plant response rating",[12],0
Cc1cc(-n2c(-c3cccc(Br)c3)ncc(C(=O)C3=C(O)CCCC3=O)c2=O)ccc1F [Compound 132],"Plant response rating, Barnyardgrass",[1]; [13],10
same,"Plant response rating, Barnyardgrass",[1]; [14],90
same,"Plant response rating, Barnyardgrass",[1]; [15],10
same,"Plant response rating, Barnyardgrass",[1]; [16],100
same,"Plant response rating, Corn",[2]; [13],0
same,"Plant response rating, Corn",[2]; [14],40
same,"Plant response rating, Corn",[2]; [15],0
same,"Plant response rating, Corn",[2]; [16],20
same,"Plant response rating, Foxtail, Giant",[3]; [13],0
same,"Plant response rating, Foxtail, Giant",[3]; [14],70
same,"Plant response rating, Foxtail, Giant",[3]; [15],20
same,"Plant response rating, Foxtail, Giant",[3]; [16],90
same,"Plant response rating, Crabgrass, Large",[4]; [13],20
same,"Plant response rating, Crabgrass, Large",[4]; [14],70
same,"Plant response rating, Crabgrass, Large",[4]; [15],50
same,"Plant response rating, Crabgrass, Large",[4]; [16],100
same,"Plant response rating, Morningglory",[5]; [13],90
same,"Plant response rating, Morningglory",[5]; [14],90
same,"Plant response rating, Morningglory",[5]; [15],0
same,"Plant response rating, Morningglory",[5]; [16],30
same,"Plant response rating, Pigweed",[6]; [13],60
same,"Plant response rating, Pigweed",[6]; [14],90
same,"Plant response rating, Pigweed",[6]; [15],10
same,"Plant response rating, Pigweed",[6]; [16],80
same,"Plant response rating, Velvetleaf",[7]; [13],100
same,"Plant response rating, Velvetleaf",[7]; [14],100
same,"Plant response rating, Velvetleaf",[7]; [15],50
same,"Plant response rating, Velvetleaf",[7]; [16],80
same,"Plant response rating, Wheat",[8]; [13],0
same,"Plant response rating, Wheat",[8]; [14],30
same,"Plant response rating, Wheat",[8]; [15],0
same,"Plant response rating, Wheat",[8]; [16],10
same,"Plant response rating, Flood, Barnyardgrass",[9],30
same,"Plant response rating, Barnyardgrass",[9]; [18],0
same,"Plant response rating, Barnyardgrass",[9]; [19],0
same,Barnyardgrass plant response rating,[9],0
same,"Plant response rating, Flood, Ducksalad",[10],100
same,"Plant response rating, Ducksalad",[10]; [18],50
same,"Plant response rating, Ducksalad",[10]; [19],80
same,Ducksalad plant response rating,[10],0
same,"Plant response rating, Flood, Rice",[11],0
same,"Plant response rating, Rice",[11]; [18],0
same,"Plant response rating, Rice",[11]; [19],0
same,Rice plant response rating,[11],0
same,"Plant response rating, Flood, Sedge, Umbrella",[12],100
same,"Plant response rating, Sedge, Umbrella",[12]; [18],0
same,"Plant response rating, Sedge, Umbrella",[12]; [19],60
same,"Sedge, Umbrella plant response rating",[12],0
